Source: PubChem BioAssay (NCI)
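48-hour exposure; five concentrations; linearly interpolated endpoints. The concentration for 50% growth inhibition is given as GI50. The concentration for full growth arrest is given as TGI.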

Assays:
Assay in all cases: NCI anticancer screen, dose series, 48 h
OVCAR-3 ovarian = test system: OVCAR-3 ovarian
NCI/ADR-RES ovarian = test system: NCI/ADR-RES ovarian
KM12 colon = test system: KM12 colon
SK-MEL-5 melanoma = test system: SK-MEL-5 melanoma
T-47D breast = test system: T-47D breast
A498 renal = test system: A498 renal
IGROV1 ovarian = test system: IGROV1 ovarian
K-562 leukemia = test system: K-562 leukemia
UACC-62 melanoma = test system: UACC-62 melanoma
MOLT-4 leukemia = test system: MOLT-4 leukemia

SMILES	GI50 (OVCAR-3 ovarian) [µM]	TGI (OVCAR-3 ovarian) [µM]	GI50 (NCI/ADR-RES ovarian) [µM]	TGI (NCI/ADR-RES ovarian) [µM]	GI50 (KM12 colon) [µM]	TGI (KM12 colon) [µM]	GI50 (SK-MEL-5 melanoma) [µM]	TGI (SK-MEL-5 melanoma) [µM]	GI50 (T-47D breast) [µM]	TGI (T-47D breast) [µM]	GI50 (A498 renal) [µM]	TGI (A498 renal) [µM]	GI50 (IGROV1 ovarian) [µM]	TGI (IGROV1 ovarian) [µM]	GI50 (K-562 leukemia) [µM]	TGI (K-562 leukemia) [µM]	GI50 (UACC-62 melanoma) [µM]	TGI (UACC-62 melanoma) [µM]	GI50 (MOLT-4 leukemia) [µM]	TGI (MOLT-4 leukemia) [µM]
CCc1ccc(Oc2c(-c3ccc(OCc4ccc(Cl)cc4)cc3O)n[nH]c2C(F)(F)F)cc1	1.78	3.28	2.11	4.85	1.77	3.35	1.66	3.03	1.71	4.25	1.87	3.82	2.33	6.87	2.32	5.37	1.8	4.81	2.46	5.64
O=C1Nc2c(ccc(Cl)c2Cl)/C1=C/c1cc(Br)c(O)c(Br)c1	3.14	12	2.95	> 24.1	4.75	40.2	2.6	10.2	2.99	12.3	3.9	23.3	8.91	> 55.8	5.57	> 100	2.49	13.3	4.37	> 76.4
O=C(CN(/C=C/C(=O)C(F)(F)F)c1ccc(Cl)cc1)c1ccc(Cl)cc1	4.52	17.3	9.07	37	3.59	20.8	11.6	24.3	5.88	38.3	13.5	26.9	1.79	7.96	5.93	32.5	3.03	13.4	8.82	37.4
COc1ccc2c(c1)C(=O)c1c-2n(CCCN(C)C)c(=O)c2ccccc12	0.551	7.85	0.349	9.66	0.412	5.25	0.123	0.406	0.309	3.56	0.377	1.72	0.344	12.3	0.287	17.5	0.922	2.5	< 0.0307	12
O=C(O)c1cc(-c2ccc3cc4c(cc3c2)OCO4)nc2ccccc12		> 100		> 100		> 100		> 100		> 100		75.1		> 100		> 100		> 100		> 100
CN(Cc1ccccc1)Cn1ccnc1		> 100		> 100		> 100		> 63.4		> 100		> 100		> 100		> 100		> 100		> 100
Cc1nn(CNc2ccccc2C(F)(F)F)c(=S)n1/N=C/c1cccc2cccnc12	> 100	> 100	35.3	> 100	43.7	> 100	> 100	> 100	> 100	> 100	> 100	> 100	52.3	> 100	35.8	> 100	33.8	> 100	41.6	> 100
COc1ccc2ncn(-c3cc(O[C@H](C)c4ccccc4C(F)(F)F)c(C(N)=O)s3)c2c1	0.0858	0.863	0.0586	0.185	0.0794	3.04	0.169	3.55	2.86	7.2	0.0764	0.597	0.312	10.5	0.109	19.4	0.142	4.58	0.122	4.43
C/C=C(\C)c1cc(=O)c2c(C)cc3c(c2o1)C(=O)c1c(O)c(C2CC(C)(N(C)C)C(OC(C)=O)C(C)O2)cc(C2CC(N(C)C)C(O)C(C)O2)c1C3=O (stereo not given)		> 21		9.16		6.49		1.59		38.2		11.1		6.01		> 50		3.97		> 15.2
